# Assay results taken from patent publication US10131652B2, “Pyrimidinyloxy benzene derivatives as herbicides” (E. I. DU PONT DE NEMOURS AND COMPANY, priority 2014, dated 2018).
# Read-outs that look alike come from different tables or passages of the source.
# Assays:
# Assay in all cases: Test E pre-/postemergence plant response
# Assay type in all cases: in vivo
# [1] = tested on: speedwell (bird's-eye speedwell, Veronica persica); conditions: scale 0 to 100, read-out: Plant response rating, Speedwell; for pest or weed control at 16 g/ha: 16 g ai/ha; for pest or weed control at 62 g/ha: 62 g ai/ha; for pest or weed control at 125 g/ha: 125 g ai/ha
# Method in brief: (§1)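 Pre-emergence: seeds sown in silt loam soil and sprayed with test chemicals in a non-phytotoxic solvent/surfactant mix. Post-emergence: plants at 2–18 cm (1- to 4-leaf stage) in peat/vermiculite medium treated with the same formulation. Visual rating versus controls after 7–21 days, 0 (no effect) to 100 (complete control).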
# kochia (Kochia scoparia) = conditions: Bassia scoparia, scale 0 to 100, read-out: Plant response rating, Kochia; for pest or weed control at 16 g/ha: 16 g ai/ha; for pest or weed control at 31 g/ha: 31 g ai/ha; for pest or weed control at 62 g/ha: 62 g ai/ha; for pest or weed control at 125 g/ha: 125 g ai/ha
# Method in brief: as §1
# [2] = tested on: pigweed (Amaranthus retroflexus); conditions: scale 0 to 100, read-out: Plant response rating, Pigweed; for pest or weed control at 16 g/ha: 16 g ai/ha; for pest or weed control at 31 g/ha: 31 g ai/ha; for pest or weed control at 62 g/ha: 62 g ai/ha; for pest or weed control at 125 g/ha: 125 g ai/ha
# Method in brief: as §1
# [3] = tested on: chickweed (common chickweed, Stellaria media); conditions: scale 0 to 100, read-out: Plant response rating, Chickweed; for pest or weed control at 16 g/ha: 16 g ai/ha; for pest or weed control at 31 g/ha: 31 g ai/ha; for pest or weed control at 62 g/ha: 62 g ai/ha; for pest or weed control at 125 g/ha: 125 g ai/ha
# Method in brief: as §1
# [4] = tested on: field poppy (Papaver rhoeas); conditions: scale 0 to 100, read-out: Plant response rating, Field Poppy; for pest or weed control at 16 g/ha: 16 g ai/ha; for pest or weed control at 31 g/ha: 31 g ai/ha; for pest or weed control at 62 g/ha: 62 g ai/ha; for pest or weed control at 125 g/ha: 125 g ai/ha
# Method in brief: as §1
# [5] = tested on: spring barley (Hordeum vulgare); conditions: for plant injury at 16 g/ha: 16 g ai/ha; for plant injury at 31 g/ha: 31 g ai/ha; for plant injury at 62 g/ha: 62 g ai/ha; for plant injury at 125 g/ha: 125 g ai/ha
# Method in brief: as §1
# [6] = tested on: canarygrass (Phalaris minor); conditions: scale 0 to 100, read-out: Plant response rating, Canarygrass; for pest or weed control at 16 g/ha: 16 g ai/ha; for pest or weed control at 31 g/ha: 31 g ai/ha; for pest or weed control at 62 g/ha: 62 g ai/ha; for pest or weed control at 125 g/ha: 125 g ai/ha
# Method in brief: as §1
# [7] = tested on: winter barley (Hordeum vulgare); conditions: scale 0 to 100, read-out: Plant response rating, Barley, Winter; for plant injury at 16 g/ha: 16 g ai/ha; for plant injury at 31 g/ha: 31 g ai/ha; for plant injury at 62 g/ha: 62 g ai/ha; for plant injury at 125 g/ha: 125 g ai/ha
# Method in brief: as §1
# [8] = tested on: wild buckwheat (Polygonum convolvulus); conditions: Fallopia convolvulus, scale 0 to 100, read-out: Plant response rating, Buckwheat, Wild; for pest or weed control at 16 g/ha: 16 g ai/ha; for pest or weed control at 31 g/ha: 31 g ai/ha; for pest or weed control at 62 g/ha: 62 g ai/ha; for pest or weed control at 125 g/ha: 125 g ai/ha
# Method in brief: as §1
# [9] = tested on: windgrass (Apera spica-venti); conditions: scale 0 to 100, read-out: Plant response rating, Windgrass; for pest or weed control at 16 g/ha: 16 g ai/ha; for pest or weed control at 62 g/ha: 62 g ai/ha; for pest or weed control at 125 g/ha: 125 g ai/ha
# Method in brief: as §1
# [10] = tested on: downy bromegrass (Bromus tectorum); conditions: scale 0 to 100, read-out: Plant response rating, Bromegrass, Downy; for pest or weed control at 16 g/ha: 16 g ai/ha; for pest or weed control at 31 g/ha: 31 g ai/ha; for pest or weed control at 62 g/ha: 62 g ai/ha; for pest or weed control at 125 g/ha: 125 g ai/ha
# Method in brief: as §1
# [11] = post-emergence, 31 g ai/ha, Postemergence
# [12] = post-emergence, Postemergence, scale 0 to 100, read-out: Plant response rating, Barley, Spring
# [13] = pre-emergence, Preemergence, scale 0 to 100, read-out: Plant response rating, Barley, Spring
smiles,measurement,setting,value
"Fc1cccc(Oc2ncc(Cl)cn2)c1-c1cc(C(F)(F)F)on1 [Compound 168, 5-chloro-2-[2-[5-(trifluoromethyl)-3-isoxazolyl]-3-fluorophenoxy]pyrimidine]",pest or weed control at 16 g/ha,"[1]; post-emergence, Postemergence",80%
same,pest or weed control at 31 g/ha,[1]; [11],75%
same,pest or weed control at 62 g/ha,"[1]; post-emergence, Postemergence",90%
same,pest or weed control at 125 g/ha,"[1]; post-emergence, Postemergence",100%
same,pest or weed control at 16 g/ha,"[1]; pre-emergence, Preemergence",100%
same,pest or weed control at 62 g/ha,"[1]; pre-emergence, Preemergence",100%
same,pest or weed control at 125 g/ha,"[1]; pre-emergence, Preemergence",100%
same,pest or weed control at 16 g/ha,"kochia (Kochia scoparia); post-emergence, Postemergence",80%
same,pest or weed control at 31 g/ha,"kochia (Kochia scoparia); post-emergence, Postemergence",80%
same,pest or weed control at 62 g/ha,"kochia (Kochia scoparia); post-emergence, Postemergence",85%
same,pest or weed control at 125 g/ha,"kochia (Kochia scoparia); post-emergence, Postemergence",85%
same,pest or weed control at 16 g/ha,"kochia (Kochia scoparia); pre-emergence, Preemergence",35%
same,pest or weed control at 31 g/ha,"kochia (Kochia scoparia); pre-emergence, Preemergence",100%
same,pest or weed control at 62 g/ha,"kochia (Kochia scoparia); pre-emergence, Preemergence",100%
same,pest or weed control at 125 g/ha,"kochia (Kochia scoparia); pre-emergence, Preemergence",100%
same,pest or weed control at 16 g/ha,"[2]; post-emergence, Postemergence",90%
same,pest or weed control at 31 g/ha,"[2]; post-emergence, Postemergence",80%
same,pest or weed control at 62 g/ha,"[2]; post-emergence, Postemergence",95%
same,pest or weed control at 125 g/ha,"[2]; post-emergence, Postemergence",95%
same,pest or weed control at 16 g/ha,"[2]; pre-emergence, Preemergence",55%
same,pest or weed control at 31 g/ha,"[2]; pre-emergence, Preemergence",100%
same,pest or weed control at 62 g/ha,"[2]; pre-emergence, Preemergence",100%
same,pest or weed control at 125 g/ha,"[2]; pre-emergence, Preemergence",100%
same,pest or weed control at 16 g/ha,"[3]; post-emergence, Postemergence",50%
same,pest or weed control at 31 g/ha,"[3]; post-emergence, Postemergence",45%
same,pest or weed control at 62 g/ha,"[3]; post-emergence, Postemergence",70%
same,pest or weed control at 125 g/ha,"[3]; post-emergence, Postemergence",90%
same,pest or weed control at 16 g/ha,"[3]; pre-emergence, Preemergence",100%
same,pest or weed control at 31 g/ha,"[3]; pre-emergence, Preemergence",80%
same,pest or weed control at 62 g/ha,"[3]; pre-emergence, Preemergence",100%
same,pest or weed control at 125 g/ha,"[3]; pre-emergence, Preemergence",100%
same,pest or weed control at 16 g/ha,"[4]; post-emergence, Postemergence",55%
same,pest or weed control at 31 g/ha,"[4]; post-emergence, Postemergence",85%
same,pest or weed control at 62 g/ha,"[4]; post-emergence, Postemergence",100%
same,pest or weed control at 125 g/ha,"[4]; post-emergence, Postemergence",100%
same,pest or weed control at 16 g/ha,"[4]; pre-emergence, Preemergence",80%
same,pest or weed control at 31 g/ha,"[4]; pre-emergence, Preemergence",100%
same,pest or weed control at 62 g/ha,"[4]; pre-emergence, Preemergence",100%
same,pest or weed control at 125 g/ha,"[4]; pre-emergence, Preemergence",100%
same,plant injury at 16 g/ha,[5]; [12],10%
same,plant injury at 31 g/ha,[5]; [12],15%
same,plant injury at 62 g/ha,[5]; [12],15%
same,plant injury at 125 g/ha,"[5]; post-emergence, Postemergence, scale 0 to 100 (0 no effect, 100 complete control), read-out: Plant response rating, Barley, Spring",25%
same,plant injury at 16 g/ha,[5]; [13],0%
same,plant injury at 31 g/ha,[5]; [13],15%
same,plant injury at 62 g/ha,[5]; [13],30%
same,plant injury at 125 g/ha,[5]; [13],35%
same,pest or weed control at 16 g/ha,"[6]; post-emergence, Postemergence",15%
same,pest or weed control at 31 g/ha,"[6]; post-emergence, Postemergence",15%
same,pest or weed control at 62 g/ha,"[6]; post-emergence, Postemergence",25%
same,pest or weed control at 125 g/ha,"[6]; post-emergence, Postemergence",55%
same,pest or weed control at 16 g/ha,"[6]; pre-emergence, Preemergence",15%
same,pest or weed control at 31 g/ha,"[6]; pre-emergence, Preemergence",15%
same,pest or weed control at 62 g/ha,"[6]; pre-emergence, Preemergence",100%
same,pest or weed control at 125 g/ha,"[6]; pre-emergence, Preemergence",100%
same,plant injury at 16 g/ha,"[7]; post-emergence, Postemergence",5%
same,plant injury at 31 g/ha,"[7]; post-emergence, Postemergence",10%
same,plant injury at 62 g/ha,"[7]; post-emergence, Postemergence",10%
same,plant injury at 125 g/ha,"[7]; post-emergence, Postemergence",15%
same,plant injury at 16 g/ha,"[7]; pre-emergence, Preemergence",0%
same,plant injury at 31 g/ha,"[7]; pre-emergence, Preemergence",5%
same,plant injury at 62 g/ha,"[7]; pre-emergence, Preemergence",25%
same,plant injury at 125 g/ha,"[7]; pre-emergence, Preemergence",40%
same,pest or weed control at 16 g/ha,"[8]; post-emergence, Postemergence",65%
same,pest or weed control at 31 g/ha,"[8]; post-emergence, Postemergence",95%
same,pest or weed control at 62 g/ha,"[8]; post-emergence, Postemergence",95%
same,pest or weed control at 125 g/ha,"[8]; post-emergence, Postemergence",100%
same,pest or weed control at 16 g/ha,"[8]; pre-emergence, Preemergence",0%
same,pest or weed control at 31 g/ha,"[8]; pre-emergence, Preemergence",65%
same,pest or weed control at 62 g/ha,"[8]; pre-emergence, Preemergence",100%
same,pest or weed control at 125 g/ha,"[8]; pre-emergence, Preemergence",100%
same,pest or weed control at 16 g/ha,"[9]; post-emergence, Postemergence",10%
same,pest or weed control at 31 g/ha,[9]; [11],15%
same,pest or weed control at 62 g/ha,"[9]; post-emergence, Postemergence",25%
same,pest or weed control at 125 g/ha,"[9]; post-emergence, Postemergence",40%
same,pest or weed control at 16 g/ha,"[9]; pre-emergence, Preemergence",0%
same,pest or weed control at 62 g/ha,"[9]; pre-emergence, Preemergence",100%
same,pest or weed control at 125 g/ha,"[9]; pre-emergence, Preemergence",100%
same,pest or weed control at 16 g/ha,"[10]; post-emergence, Postemergence",5%
same,pest or weed control at 31 g/ha,"[10]; post-emergence, Postemergence",15%
same,pest or weed control at 62 g/ha,"[10]; post-emergence, Postemergence",25%
same,pest or weed control at 125 g/ha,"[10]; post-emergence, Postemergence",35%
same,pest or weed control at 16 g/ha,"[10]; pre-emergence, Preemergence",0%
same,pest or weed control at 31 g/ha,"[10]; pre-emergence, Preemergence",10%
same,pest or weed control at 62 g/ha,"[10]; pre-emergence, Preemergence",10%
same,pest or weed control at 125 g/ha,"[10]; pre-emergence, Preemergence",40%
